What all share (assay): biochemical
Assay [1] concerns the target T1, safety screen panel of human pharmacological targets (Homo sapiens, UniProt P04150).
T1 sequence (P04150 1-777): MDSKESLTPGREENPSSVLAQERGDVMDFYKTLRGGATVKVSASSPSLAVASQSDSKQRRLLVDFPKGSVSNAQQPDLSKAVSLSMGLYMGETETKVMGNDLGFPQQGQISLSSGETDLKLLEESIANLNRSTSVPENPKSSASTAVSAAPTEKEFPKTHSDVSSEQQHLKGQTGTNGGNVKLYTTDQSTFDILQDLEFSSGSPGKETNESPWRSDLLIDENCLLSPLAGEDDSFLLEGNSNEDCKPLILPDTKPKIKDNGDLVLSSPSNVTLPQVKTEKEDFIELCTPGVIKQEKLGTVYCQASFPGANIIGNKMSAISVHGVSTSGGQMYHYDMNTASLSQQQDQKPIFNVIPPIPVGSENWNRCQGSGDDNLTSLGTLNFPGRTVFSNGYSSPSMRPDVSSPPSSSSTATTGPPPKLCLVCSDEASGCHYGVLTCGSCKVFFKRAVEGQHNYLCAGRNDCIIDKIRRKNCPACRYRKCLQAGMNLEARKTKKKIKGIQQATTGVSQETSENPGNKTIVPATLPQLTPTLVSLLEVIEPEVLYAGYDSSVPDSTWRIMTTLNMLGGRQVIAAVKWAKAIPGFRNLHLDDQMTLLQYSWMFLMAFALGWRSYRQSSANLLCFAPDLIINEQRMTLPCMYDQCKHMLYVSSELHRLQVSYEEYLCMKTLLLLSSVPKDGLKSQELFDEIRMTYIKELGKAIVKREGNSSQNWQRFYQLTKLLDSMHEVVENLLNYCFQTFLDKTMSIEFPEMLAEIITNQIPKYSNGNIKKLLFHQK
As to conditions: read-out: percent inhibition: GR (h) (agonist radioligand).

The target of assay [2] is safety screen panel of human pharmacological targets (Homo sapiens, UniProt P08588). As to conditions: read-out: percent inhibition: beta 1 (h) {agonist radioligand).
safety screen panel of human pharmacological targets (Homo sapiens, UniProt P08588), sequence (P08588 whole entry): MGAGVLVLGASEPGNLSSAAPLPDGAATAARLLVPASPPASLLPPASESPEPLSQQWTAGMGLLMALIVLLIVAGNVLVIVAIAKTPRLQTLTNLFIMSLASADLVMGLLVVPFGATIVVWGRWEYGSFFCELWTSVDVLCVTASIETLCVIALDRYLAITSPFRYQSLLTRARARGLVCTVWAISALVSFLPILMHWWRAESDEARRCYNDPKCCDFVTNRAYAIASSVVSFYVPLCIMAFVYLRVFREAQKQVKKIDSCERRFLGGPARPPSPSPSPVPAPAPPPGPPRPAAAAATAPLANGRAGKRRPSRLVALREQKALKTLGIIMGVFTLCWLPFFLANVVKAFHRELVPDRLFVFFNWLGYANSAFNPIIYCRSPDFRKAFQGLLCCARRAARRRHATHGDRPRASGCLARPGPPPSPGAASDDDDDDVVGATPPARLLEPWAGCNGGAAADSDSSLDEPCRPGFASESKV
Assay [3] deals with safety screen panel of human pharmacological targets (Homo sapiens, UniProt P20309). As to conditions: read-out: percent inhibition: M3 (h) (antagonist radioligand).
safety screen panel of human pharmacological targets (Homo sapiens, UniProt P20309), sequence (P20309 whole entry): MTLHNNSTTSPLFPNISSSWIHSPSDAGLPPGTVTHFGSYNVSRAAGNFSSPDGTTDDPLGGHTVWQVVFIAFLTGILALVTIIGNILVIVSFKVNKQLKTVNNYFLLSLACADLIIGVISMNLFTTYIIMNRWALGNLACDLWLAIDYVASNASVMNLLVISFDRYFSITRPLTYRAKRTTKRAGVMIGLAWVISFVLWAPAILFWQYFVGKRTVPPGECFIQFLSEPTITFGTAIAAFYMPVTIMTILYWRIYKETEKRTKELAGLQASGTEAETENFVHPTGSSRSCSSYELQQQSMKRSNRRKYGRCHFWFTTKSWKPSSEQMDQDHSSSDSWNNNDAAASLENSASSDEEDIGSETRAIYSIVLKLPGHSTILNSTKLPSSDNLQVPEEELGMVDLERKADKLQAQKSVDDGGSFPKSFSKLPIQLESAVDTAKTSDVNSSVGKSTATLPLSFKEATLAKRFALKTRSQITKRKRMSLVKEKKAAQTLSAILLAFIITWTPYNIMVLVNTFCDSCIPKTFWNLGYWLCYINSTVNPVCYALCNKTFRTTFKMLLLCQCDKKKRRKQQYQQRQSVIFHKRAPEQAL
Assay [4] concerns the target safety screen panel of human pharmacological targets (Homo sapiens, UniProt P21728). The conditions noted are these: read-out: percent inhibition: D1 (h) (antagonist radioligand).
Assay [5] concerns the target safety screen panel of human pharmacological targets (Homo sapiens, UniProt P25021). As to conditions: read-out: percent inhibition: H2 (h) (antagonist radioligand).
In assay [6] the target is T2, safety screen panel of human pharmacological targets (Homo sapiens, UniProt P25101).
T2 sequence (P25101 21-427): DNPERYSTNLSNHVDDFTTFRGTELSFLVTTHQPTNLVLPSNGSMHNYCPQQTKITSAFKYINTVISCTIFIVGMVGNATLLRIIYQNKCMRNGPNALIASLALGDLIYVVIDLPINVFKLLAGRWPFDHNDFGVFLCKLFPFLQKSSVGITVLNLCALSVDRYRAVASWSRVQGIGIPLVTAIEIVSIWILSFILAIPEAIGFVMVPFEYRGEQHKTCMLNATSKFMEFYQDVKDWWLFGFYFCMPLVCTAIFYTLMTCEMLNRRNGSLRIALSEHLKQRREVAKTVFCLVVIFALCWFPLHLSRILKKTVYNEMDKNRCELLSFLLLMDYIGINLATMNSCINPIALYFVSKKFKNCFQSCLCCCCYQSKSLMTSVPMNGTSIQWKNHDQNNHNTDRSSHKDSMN
As to conditions: read-out: percent inhibition: ETA (h) (agonist radioligand).

Assay [7] has as its target T3, safety screen panel of human pharmacological targets (Homo sapiens, UniProt P32238).
T3 sequence (P32238 1-428): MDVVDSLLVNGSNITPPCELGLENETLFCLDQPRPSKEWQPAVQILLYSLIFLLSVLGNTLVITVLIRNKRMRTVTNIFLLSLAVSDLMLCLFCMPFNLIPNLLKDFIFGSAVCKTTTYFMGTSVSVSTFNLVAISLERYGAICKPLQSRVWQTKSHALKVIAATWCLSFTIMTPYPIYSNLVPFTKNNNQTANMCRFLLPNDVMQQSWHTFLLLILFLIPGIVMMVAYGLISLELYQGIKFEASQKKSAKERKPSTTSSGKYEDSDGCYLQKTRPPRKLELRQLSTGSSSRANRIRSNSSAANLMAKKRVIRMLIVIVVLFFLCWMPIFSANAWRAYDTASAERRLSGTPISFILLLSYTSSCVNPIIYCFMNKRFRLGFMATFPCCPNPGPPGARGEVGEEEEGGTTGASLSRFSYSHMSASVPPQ
The conditions noted are these: read-out: percent inhibition: CCK1 (CCKA) (h) (agonist radioligand).

In assay [8] the target is safety screen panel of human pharmacological targets (Homo sapiens, UniProt P34972). The conditions noted are these: read-out: percent inhibition: CB2 (h) (agonist radioligand).
safety screen panel of human pharmacological targets (Homo sapiens, UniProt P34972), sequence (P34972 whole entry): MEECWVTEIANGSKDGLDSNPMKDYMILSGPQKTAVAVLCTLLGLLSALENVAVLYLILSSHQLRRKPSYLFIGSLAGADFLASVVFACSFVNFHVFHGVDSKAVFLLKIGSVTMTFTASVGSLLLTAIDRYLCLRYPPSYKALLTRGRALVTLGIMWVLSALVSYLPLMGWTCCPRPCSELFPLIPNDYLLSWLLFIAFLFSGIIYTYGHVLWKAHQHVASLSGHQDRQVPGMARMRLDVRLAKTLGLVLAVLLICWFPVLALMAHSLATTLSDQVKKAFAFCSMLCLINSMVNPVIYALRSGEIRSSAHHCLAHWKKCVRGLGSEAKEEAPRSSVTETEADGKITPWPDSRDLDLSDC
Assay [9] has as its target safety screen panel of human pharmacological targets (Homo sapiens, UniProt P35372). As to conditions: read-out: percent inhibition: mu (MOP) (h) (agonist radioligand).
Assay [10] addresses safety screen panel of human pharmacological targets (Homo sapiens, UniProt P41143). As to conditions: read-out: percent inhibition: delta (DOP) (h) (agonist radioligand).
For assay [11], the target named is safety screen panel of human pharmacological targets (Homo sapiens, UniProt P41595). As to conditions: read-out: percent inhibition: 5-HT2B (h) (agonist radioligand).
safety screen panel of human pharmacological targets (Homo sapiens, UniProt P41595), sequence (P41595 whole entry): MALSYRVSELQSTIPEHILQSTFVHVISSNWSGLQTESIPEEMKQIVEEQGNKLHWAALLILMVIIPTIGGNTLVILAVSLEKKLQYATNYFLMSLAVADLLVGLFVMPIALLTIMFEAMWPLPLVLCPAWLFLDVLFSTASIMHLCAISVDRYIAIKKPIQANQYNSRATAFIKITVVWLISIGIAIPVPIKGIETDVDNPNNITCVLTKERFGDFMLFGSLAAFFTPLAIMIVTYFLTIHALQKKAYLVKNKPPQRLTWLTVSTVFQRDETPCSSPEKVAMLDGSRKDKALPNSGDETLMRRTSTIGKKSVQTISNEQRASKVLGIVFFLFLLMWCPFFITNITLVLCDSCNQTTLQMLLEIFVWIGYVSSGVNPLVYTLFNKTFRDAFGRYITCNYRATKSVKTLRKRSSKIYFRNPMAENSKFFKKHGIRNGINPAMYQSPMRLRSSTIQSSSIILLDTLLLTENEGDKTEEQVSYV
Assay [12] has as its target safety screen panel of human pharmacological targets (Homo sapiens, UniProt P43681). As to conditions: read-out: percent inhibition: N neuronal alpha 4beta 2 h) (agonist radioligand).
The target in assay [13] is safety screen panel of human pharmacological targets (Rattus norvegicus, UniProt P28564). As to conditions: read-out: percent inhibition: 5-HT1B (antagonist radioligand).
safety screen panel of human pharmacological targets (Rattus norvegicus, UniProt P28564), sequence (P28564 whole entry): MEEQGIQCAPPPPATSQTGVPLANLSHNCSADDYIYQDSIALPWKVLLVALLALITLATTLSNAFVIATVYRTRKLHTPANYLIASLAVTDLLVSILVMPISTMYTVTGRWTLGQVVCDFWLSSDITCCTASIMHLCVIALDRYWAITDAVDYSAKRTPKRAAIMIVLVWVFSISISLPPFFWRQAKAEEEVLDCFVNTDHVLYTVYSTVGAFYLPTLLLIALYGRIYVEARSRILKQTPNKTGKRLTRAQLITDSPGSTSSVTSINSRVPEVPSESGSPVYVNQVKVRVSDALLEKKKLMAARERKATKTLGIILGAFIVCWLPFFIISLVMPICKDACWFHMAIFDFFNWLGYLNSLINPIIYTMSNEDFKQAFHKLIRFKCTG
The target in assay [14] is safety screen panel of human pharmacological targets (Rattus norvegicus, UniProt P34975). As to conditions: read-out: percent inhibition: kappa (KOP) (agonist radioligand).
safety screen panel of human pharmacological targets (Rattus norvegicus, UniProt P34975), sequence (P34975 whole entry): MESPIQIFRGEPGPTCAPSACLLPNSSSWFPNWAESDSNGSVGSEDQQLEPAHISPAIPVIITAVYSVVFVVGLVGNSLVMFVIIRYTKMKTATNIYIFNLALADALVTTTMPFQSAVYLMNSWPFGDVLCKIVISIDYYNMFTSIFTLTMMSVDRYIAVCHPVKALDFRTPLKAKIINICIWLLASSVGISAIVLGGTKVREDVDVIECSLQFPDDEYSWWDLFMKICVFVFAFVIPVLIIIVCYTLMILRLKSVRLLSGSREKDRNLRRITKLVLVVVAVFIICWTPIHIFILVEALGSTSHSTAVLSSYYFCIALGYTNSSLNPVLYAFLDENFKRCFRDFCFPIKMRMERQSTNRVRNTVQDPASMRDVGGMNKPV

SMILES strings stand for the structures.

safety screen panel of human pharmacological targets (Homo sapiens, UniProt P21728), sequence (P21728 whole entry): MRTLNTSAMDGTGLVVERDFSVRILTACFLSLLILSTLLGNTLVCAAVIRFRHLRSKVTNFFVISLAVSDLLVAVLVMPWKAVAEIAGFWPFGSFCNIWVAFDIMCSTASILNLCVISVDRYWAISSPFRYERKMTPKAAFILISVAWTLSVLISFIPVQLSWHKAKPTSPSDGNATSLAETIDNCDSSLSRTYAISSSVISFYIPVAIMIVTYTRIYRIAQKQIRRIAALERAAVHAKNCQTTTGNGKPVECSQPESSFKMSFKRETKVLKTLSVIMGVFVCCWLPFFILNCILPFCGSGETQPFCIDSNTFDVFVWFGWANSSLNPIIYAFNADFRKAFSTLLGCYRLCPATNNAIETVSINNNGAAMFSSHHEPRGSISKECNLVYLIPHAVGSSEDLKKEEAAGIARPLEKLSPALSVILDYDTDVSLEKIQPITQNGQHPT
safety screen panel of human pharmacological targets (Homo sapiens, UniProt P43681), sequence (P43681 27-627): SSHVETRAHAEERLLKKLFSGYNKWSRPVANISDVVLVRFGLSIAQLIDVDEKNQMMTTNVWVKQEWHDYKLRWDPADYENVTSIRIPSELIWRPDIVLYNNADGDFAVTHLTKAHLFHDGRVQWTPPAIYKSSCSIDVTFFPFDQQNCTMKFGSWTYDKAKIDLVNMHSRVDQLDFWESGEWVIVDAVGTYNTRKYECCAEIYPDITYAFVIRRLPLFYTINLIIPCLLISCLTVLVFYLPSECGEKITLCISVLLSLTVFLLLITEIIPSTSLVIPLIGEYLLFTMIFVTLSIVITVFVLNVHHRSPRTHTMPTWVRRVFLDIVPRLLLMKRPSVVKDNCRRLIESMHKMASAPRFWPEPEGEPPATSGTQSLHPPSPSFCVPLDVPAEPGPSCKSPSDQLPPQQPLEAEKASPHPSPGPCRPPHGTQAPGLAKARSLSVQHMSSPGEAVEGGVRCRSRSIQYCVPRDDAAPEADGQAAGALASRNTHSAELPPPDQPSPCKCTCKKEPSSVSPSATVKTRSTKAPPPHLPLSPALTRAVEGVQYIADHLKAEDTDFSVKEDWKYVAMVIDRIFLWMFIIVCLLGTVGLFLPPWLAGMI
safety screen panel of human pharmacological targets (Homo sapiens, UniProt P35372), sequence (P35372 whole entry): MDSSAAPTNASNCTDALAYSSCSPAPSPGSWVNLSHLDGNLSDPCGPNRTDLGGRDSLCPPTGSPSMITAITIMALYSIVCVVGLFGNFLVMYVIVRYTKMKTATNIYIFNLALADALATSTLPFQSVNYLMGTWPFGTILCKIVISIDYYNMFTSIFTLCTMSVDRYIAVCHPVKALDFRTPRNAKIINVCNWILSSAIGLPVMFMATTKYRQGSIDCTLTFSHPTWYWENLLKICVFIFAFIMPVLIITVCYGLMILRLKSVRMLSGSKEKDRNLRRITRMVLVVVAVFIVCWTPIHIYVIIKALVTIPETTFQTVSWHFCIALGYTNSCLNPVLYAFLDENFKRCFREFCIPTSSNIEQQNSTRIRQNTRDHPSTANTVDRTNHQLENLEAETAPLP
safety screen panel of human pharmacological targets (Homo sapiens, UniProt P25021), sequence (P25021 whole entry): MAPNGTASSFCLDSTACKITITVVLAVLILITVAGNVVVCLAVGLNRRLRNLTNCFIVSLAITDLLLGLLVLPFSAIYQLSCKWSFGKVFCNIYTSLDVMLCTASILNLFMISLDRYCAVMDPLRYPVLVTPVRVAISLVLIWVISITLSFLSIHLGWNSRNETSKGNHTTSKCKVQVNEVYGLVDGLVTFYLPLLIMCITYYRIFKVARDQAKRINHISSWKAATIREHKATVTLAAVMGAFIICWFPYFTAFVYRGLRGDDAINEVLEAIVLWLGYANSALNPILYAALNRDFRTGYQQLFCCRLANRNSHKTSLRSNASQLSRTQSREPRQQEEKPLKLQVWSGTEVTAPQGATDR
safety screen panel of human pharmacological targets (Homo sapiens, UniProt P41143), sequence (P41143 whole entry): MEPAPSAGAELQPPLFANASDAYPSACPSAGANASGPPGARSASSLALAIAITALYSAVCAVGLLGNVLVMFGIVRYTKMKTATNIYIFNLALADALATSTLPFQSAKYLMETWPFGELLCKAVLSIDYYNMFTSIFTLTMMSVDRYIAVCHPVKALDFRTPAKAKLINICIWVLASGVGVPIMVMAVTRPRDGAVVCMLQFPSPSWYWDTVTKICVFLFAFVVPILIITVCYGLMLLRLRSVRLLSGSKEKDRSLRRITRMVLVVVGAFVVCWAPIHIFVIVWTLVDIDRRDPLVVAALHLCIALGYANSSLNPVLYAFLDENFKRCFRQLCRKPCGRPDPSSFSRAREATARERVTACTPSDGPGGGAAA

As for `CCCCCc1cc(O)c2c(c1)OC(C)(C)[C@@H]1CCC(C)=C[C@@H]21` [VB301, Δ9-Terahydrocannabinol, reference compound], the inhibition at 10 µM was 20% in [1]; 1% in [2]; 23% in assay [3]; 75% in [4]; -6% in assay [5]; 14% in assay [6]. Further, the inhibition at 10 µM turned out to be 87% in [7]; 97% in assay [8]; 89% in assay [9]; 43% in [10]; 90% in assay [11]; 1% in assay [12]. Also, the results for the inhibition at 10 µM in [13] and in assay [14] were 26% and 92%, respectively.
`CCCCCc1cc(O[C@@H]2O[C@H](CO)[C@@H](O)[C@H](O)[C@H]2O)c2c(c1)OC(C)(C)[C@@H]1CCC(C)=C[C@@H]21` [VB302, Δ9THC-1-O-glucopyranoside]: the inhibition at 10 µM in [1] is -8%; in assay [2] it was 7%; in [3] it was 11%; in assay [4] it was 4%; in assay [5], -11%; in assay [6], -21%. In addition, the inhibition at 10 µM in assay [7] is -31%; in assay [8], 22%; in [9], -5%; in assay [10] it was 5%; in assay [11], -5%; in assay [12], 7%. The inhibition at 10 µM in [13] was -1%; in assay [14], 20%.
Take `CCCCCc1cc(O[C@@H]2O[C@H](CO[C@@H]3O[C@H](CO)[C@@H](O)[C@H](O)[C@H]3O)[C@@H](O[C@@H]3O[C@H](CO)[C@@H](O)[C@H](O)[C@H]3O)[C@H](O)[C@H]2O)c2c(c1)OC(C)(C)[C@@H]1CCC(C)=C[C@@H]21` [VB311]: the inhibition at 10 µM is 12% in [1]; 0% in assay [2]; -5% in assay [3]; 37% in [4]; -10% in [5]; 9% in assay [6]. Moreover, the inhibition at 10 µM in [7] was 17%; in assay [8] it was 17%; in assay [9], 5%; in assay [10], 0%; in [11], -7%; in [12], -1%. Moreover, the inhibition at 10 µM in assay [13] is -7%; in assay [14], 4%.

The values above are taken from US20230346952A1, “CANNABINOID GLYCOSIDE PRODRUGS AND METHODS OF SYNTHESIS” (priority 2015, published 2023).
